Laboratory results reported in ChEMBL document CHEMBL4725363 (J Med Chem, 2020).
The source made the active and inactive calls. No cut-off for these calls is given here.

Key:
[1] = Cmax in Sprague-Dawley rat at 5 mg/kg, po after 24 hrs by LC-MS/MS analysis; format: ADME, organism-based; set-up: route oral, dose 5 mg/kg, time 24 hrs; settings: in vivo
Cytochrome P450 1A2 = target: T1, Cytochrome P450 1A2 (Homo sapiens, UniProt P05177); test: Inhibition of CYP1A2 (unknown origin); format: ADME
T1 sequence (P05177 whole entry): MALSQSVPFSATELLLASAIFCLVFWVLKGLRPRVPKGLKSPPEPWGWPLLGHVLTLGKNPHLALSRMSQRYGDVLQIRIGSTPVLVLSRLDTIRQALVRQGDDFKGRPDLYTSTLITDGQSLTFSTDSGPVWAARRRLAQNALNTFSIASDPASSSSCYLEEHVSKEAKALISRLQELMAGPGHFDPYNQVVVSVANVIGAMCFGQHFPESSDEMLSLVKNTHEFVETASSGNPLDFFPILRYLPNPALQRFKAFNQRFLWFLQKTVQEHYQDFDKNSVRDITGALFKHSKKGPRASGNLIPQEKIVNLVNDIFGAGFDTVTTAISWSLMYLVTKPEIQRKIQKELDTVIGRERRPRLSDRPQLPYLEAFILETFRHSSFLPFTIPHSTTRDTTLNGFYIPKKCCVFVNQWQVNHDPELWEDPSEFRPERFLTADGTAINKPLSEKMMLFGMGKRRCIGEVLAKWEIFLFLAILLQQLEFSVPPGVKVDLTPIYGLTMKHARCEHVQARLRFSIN

Cytochrome P450 3A4 = Cytochrome P450 3A4 (Homo sapiens, UniProt P08684); test: Inhibition of CYP3A4 (unknown origin); format: ADME
Sequence of Cytochrome P450 3A4 (P08684 whole entry, the tested form may be a part): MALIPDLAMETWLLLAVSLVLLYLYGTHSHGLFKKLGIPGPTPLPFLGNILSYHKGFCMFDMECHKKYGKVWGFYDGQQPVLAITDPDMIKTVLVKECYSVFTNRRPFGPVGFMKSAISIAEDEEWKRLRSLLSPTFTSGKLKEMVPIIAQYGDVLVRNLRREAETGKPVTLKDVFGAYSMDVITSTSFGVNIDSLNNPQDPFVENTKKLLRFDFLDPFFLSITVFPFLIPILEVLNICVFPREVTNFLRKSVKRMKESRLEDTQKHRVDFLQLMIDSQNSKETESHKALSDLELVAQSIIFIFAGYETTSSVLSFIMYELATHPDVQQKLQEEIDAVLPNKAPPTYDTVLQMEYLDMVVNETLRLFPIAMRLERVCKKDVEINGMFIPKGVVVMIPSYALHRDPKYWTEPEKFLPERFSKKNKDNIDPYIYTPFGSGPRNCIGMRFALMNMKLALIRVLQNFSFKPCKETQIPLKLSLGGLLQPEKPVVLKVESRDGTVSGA

[2] = target: Cone cGMP-specific 3',5'-cyclic phosphodiesterase subunit alpha' (Homo sapiens, UniProt P51160); test: Inhibition of human PDE6C (2-854 residues) expressed in Sf9 cells incubated for 15 mins using [3H]-cGMP as substrate by liquid scintillation counting method
Sequence of Cone cGMP-specific 3',5'-cyclic phosphodiesterase subunit alpha' (P51160 whole entry, the tested form may be a part): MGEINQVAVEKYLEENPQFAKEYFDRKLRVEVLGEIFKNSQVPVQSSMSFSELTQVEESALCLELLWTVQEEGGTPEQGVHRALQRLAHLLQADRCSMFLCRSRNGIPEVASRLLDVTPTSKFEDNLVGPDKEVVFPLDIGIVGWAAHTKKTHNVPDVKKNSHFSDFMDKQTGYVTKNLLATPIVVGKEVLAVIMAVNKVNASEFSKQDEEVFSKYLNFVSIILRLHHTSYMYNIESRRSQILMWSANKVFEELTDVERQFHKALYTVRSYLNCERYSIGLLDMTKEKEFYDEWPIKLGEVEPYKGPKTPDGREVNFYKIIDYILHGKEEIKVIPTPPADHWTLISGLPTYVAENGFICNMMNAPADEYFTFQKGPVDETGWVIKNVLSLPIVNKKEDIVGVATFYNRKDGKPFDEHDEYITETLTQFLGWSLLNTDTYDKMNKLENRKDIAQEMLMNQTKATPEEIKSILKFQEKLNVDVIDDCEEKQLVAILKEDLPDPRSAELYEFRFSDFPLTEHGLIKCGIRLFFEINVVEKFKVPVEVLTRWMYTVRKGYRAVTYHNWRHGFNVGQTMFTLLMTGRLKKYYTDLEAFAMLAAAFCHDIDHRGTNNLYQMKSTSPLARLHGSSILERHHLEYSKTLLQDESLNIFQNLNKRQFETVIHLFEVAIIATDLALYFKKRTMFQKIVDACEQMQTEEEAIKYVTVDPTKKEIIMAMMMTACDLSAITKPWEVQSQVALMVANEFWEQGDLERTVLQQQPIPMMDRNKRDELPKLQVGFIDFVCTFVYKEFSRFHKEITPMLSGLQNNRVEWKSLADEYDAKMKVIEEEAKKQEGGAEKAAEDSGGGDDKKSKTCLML

[3] = AUC (0 to infinity) in Sprague-Dawley rat at 5 mg/kg, po after 24 hrs by LC-MS/MS analysis; format: ADME, organism-based; set-up: route oral, time 24 hrs, dose 5 mg/kg; settings: in vivo
[4] = AUC (0 to t) in Sprague-Dawley rat at 5 mg/kg, po after 24 hrs by LC-MS/MS analysis; format: ADME, organism-based; set-up: route oral, time 24 hrs, dose 5 mg/kg; settings: in vivo
Rattus norvegicus [5] = test: Suppression of hypertension pressure in Wistar rat model of pulmonary hypertension assessed as reduction in MCT-induced wall thickness of small pulmonary arteries at 20 mg/kg/day, po for 3 weeks; format: functional, organism-based
Rattus norvegicus [6] = test: Suppression of hypertension pressure in Wistar rat model of pulmonary hypertension assessed as dilation of small pulmonary vessels arteries at 20 mg/kg/day, po for 3 weeks by H and E staining based microscopy; format: functional, organism-based
Cytochrome P450 2C9 = Cytochrome P450 2C9 (Homo sapiens, UniProt P11712); test: Inhibition of CYP2C9 (unknown origin); format: ADME
Sequence of Cytochrome P450 2C9 (P11712 whole entry): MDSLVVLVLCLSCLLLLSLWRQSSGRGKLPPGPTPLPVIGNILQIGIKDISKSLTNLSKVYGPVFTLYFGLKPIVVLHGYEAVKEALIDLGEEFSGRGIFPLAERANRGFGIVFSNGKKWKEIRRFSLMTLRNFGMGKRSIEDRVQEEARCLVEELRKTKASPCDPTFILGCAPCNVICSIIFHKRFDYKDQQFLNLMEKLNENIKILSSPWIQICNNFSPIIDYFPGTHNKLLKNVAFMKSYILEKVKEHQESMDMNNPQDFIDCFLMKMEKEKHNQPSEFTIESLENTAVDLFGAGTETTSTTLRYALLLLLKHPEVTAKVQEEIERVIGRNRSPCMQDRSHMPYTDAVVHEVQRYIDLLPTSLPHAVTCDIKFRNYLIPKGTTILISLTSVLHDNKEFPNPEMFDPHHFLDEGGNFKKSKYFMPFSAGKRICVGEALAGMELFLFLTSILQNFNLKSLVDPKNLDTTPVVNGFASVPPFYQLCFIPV

Cytochrome P450 2D6 = Cytochrome P450 2D6 (Homo sapiens, UniProt P10635); test: Inhibition of CYP2D6 (unknown origin); format: ADME
Sequence of Cytochrome P450 2D6 (P10635 whole entry): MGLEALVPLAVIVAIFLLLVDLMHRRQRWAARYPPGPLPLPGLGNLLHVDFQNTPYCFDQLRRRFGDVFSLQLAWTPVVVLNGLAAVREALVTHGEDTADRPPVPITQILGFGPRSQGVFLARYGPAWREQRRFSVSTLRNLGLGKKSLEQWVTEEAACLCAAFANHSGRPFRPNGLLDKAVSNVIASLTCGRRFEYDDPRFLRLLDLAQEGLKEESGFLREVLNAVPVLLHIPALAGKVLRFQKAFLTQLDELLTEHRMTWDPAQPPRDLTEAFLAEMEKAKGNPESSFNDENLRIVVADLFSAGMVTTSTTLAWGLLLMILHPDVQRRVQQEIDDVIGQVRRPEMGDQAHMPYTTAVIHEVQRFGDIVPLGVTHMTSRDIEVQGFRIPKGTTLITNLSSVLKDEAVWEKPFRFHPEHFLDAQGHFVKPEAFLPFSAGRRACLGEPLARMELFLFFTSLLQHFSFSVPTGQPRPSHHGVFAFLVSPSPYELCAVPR

[7] = Half life in Sprague-Dawley rat at 2.5 mg/kg, iv after 24 hrs by LC-MS/MS analysis; format: ADME, organism-based; settings: in vivo
[8] = target: DNA topoisomerase 2-alpha (Homo sapiens) (UniProt P11388); test: Inhibition of Top2 (unknown origin) mediated supercoiled DNA relaxation at 100 uM
Sequence of DNA topoisomerase 2-alpha (Homo sapiens) (P11388 whole entry): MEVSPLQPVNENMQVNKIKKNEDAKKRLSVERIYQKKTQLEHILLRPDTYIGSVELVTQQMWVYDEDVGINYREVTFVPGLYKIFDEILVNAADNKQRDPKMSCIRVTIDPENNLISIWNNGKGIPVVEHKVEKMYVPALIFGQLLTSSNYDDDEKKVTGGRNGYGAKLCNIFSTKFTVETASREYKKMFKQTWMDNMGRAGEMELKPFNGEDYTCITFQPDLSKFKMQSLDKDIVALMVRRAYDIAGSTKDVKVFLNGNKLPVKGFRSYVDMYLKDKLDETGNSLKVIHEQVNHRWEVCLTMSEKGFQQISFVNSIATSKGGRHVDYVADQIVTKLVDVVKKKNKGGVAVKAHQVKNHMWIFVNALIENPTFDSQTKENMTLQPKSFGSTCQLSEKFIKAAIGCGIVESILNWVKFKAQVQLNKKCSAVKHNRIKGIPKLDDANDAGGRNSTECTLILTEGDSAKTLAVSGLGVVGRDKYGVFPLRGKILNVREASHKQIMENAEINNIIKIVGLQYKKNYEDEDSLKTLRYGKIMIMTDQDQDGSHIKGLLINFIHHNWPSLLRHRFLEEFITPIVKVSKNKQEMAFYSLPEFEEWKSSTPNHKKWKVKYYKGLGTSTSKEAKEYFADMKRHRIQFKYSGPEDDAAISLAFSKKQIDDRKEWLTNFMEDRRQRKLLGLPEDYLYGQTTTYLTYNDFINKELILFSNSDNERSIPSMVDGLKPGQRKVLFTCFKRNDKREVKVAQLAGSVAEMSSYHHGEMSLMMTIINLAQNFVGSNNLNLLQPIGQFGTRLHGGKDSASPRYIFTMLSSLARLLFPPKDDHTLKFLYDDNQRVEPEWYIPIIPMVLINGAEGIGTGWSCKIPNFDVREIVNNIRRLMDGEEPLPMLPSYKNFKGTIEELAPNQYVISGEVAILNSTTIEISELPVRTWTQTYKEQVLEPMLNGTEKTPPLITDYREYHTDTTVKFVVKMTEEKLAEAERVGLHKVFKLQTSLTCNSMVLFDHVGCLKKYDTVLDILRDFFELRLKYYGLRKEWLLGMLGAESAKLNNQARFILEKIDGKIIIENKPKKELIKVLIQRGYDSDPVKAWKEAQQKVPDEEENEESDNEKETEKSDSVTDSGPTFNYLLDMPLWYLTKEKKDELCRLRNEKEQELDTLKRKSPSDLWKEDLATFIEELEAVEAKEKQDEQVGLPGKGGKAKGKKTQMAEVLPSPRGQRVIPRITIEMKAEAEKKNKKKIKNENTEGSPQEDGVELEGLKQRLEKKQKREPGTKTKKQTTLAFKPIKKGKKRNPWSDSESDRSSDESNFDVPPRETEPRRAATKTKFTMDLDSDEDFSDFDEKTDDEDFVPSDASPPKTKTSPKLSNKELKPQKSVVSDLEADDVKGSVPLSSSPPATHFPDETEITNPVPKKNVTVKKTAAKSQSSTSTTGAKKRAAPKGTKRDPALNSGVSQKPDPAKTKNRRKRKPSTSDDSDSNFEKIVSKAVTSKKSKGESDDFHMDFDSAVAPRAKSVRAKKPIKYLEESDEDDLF

[9] = MRT (0 to t) in Sprague-Dawley rat at 2.5 mg/kg, iv after 24 hrs by LC-MS/MS analysis; format: ADME, organism-based; settings: in vivo
[10] = target: cAMP and cAMP-inhibited cGMP 3',5'-cyclic phosphodiesterase 10A (Homo sapiens, UniProt Q9Y233); test: Inhibition of human PDE10A catalytic domain (449 to 770 residues) using [3H]-cAMP as substrate after 15 mins by liquid scintillation counting method
[11] = Half life in Sprague-Dawley rat at 5 mg/kg, po after 24 hrs by LC-MS/MS analysis; format: ADME, organism-based; settings: in vivo
[12] = target: Dual 3',5'-cyclic-AMP and -GMP phosphodiesterase 11A (Homo sapiens, UniProt Q9HCR9); test: Inhibition of PDE11A catalytic domain (unknown origin) using [3H]-cAMP or [3H]-[…] as substrate after 15 mins by liquid scintillation counting method
[13] = AUC (0 to t) in Sprague-Dawley rat at 2.5 mg/kg, iv after 24 hrs by LC-MS/MS analysis; format: ADME, organism-based; set-up: route intravenous, dose 2.5 mg/kg, time 24 hrs; settings: in vivo
[14] = target: Voltage-gated inwardly rectifying potassium channel KCNH2 (Homo sapiens, UniProt Q12809); test: Inhibition of human ERG expressed in CHO cells by patch-clamp electrophysiology method; format: cell-based
Sequence of Voltage-gated inwardly rectifying potassium channel KCNH2 (Q12809 whole entry): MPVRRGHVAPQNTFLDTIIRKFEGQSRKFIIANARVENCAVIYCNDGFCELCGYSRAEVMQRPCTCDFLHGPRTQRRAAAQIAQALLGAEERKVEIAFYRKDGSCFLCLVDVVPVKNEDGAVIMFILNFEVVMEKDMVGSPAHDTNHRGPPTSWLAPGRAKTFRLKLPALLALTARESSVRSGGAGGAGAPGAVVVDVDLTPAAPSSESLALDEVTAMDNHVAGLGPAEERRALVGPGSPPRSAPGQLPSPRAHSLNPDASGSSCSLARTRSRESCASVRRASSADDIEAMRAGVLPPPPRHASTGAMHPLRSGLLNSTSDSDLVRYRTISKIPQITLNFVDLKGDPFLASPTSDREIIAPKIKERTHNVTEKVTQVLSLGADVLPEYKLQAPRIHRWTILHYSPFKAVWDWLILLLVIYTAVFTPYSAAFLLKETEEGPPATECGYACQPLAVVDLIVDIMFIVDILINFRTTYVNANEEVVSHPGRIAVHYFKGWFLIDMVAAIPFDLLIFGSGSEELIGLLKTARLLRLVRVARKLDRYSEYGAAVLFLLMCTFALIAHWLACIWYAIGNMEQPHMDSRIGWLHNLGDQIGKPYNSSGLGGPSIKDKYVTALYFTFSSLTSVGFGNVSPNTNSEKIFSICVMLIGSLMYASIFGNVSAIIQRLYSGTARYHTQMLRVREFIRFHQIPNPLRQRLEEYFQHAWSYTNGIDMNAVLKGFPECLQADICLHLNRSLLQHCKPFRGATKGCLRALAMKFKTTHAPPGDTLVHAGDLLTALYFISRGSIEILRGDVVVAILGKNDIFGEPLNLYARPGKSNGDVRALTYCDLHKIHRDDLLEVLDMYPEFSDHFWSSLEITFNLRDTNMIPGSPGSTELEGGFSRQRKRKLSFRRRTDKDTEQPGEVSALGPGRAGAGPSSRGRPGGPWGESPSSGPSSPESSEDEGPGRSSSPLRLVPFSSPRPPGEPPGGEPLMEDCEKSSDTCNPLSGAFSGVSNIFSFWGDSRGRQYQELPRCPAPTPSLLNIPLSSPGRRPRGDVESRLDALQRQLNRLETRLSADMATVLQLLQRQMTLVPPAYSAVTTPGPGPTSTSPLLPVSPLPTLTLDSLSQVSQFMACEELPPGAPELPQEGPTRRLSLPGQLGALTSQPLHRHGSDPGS

Rattus norvegicus [15] = test: Suppression of hypertension pressure in Wistar rat model of pulmonary hypertension at 20 mg/kg/day, po for 3 weeks; format: functional, organism-based
[16] = Inhibition of human PDE5A1 D563A mutant expressed in Escherichia coli BL21 incubated for 15 mins using [3H]-cGMP as substrate by liquid scintillation counting method
[17] = AUC (0 to infinity) in Sprague-Dawley rat at 2.5 mg/kg, iv after 24 hrs by LC-MS/MS analysis; format: ADME, organism-based; set-up: route intravenous, time 24 hrs, dose 2.5 mg/kg; settings: in vivo
Cytochrome P450 2B6 = target: T2, Cytochrome P450 2B6 (Homo sapiens, UniProt P20813); test: Inhibition of CYP2B6 (unknown origin); format: ADME
T2 sequence (P20813 whole entry): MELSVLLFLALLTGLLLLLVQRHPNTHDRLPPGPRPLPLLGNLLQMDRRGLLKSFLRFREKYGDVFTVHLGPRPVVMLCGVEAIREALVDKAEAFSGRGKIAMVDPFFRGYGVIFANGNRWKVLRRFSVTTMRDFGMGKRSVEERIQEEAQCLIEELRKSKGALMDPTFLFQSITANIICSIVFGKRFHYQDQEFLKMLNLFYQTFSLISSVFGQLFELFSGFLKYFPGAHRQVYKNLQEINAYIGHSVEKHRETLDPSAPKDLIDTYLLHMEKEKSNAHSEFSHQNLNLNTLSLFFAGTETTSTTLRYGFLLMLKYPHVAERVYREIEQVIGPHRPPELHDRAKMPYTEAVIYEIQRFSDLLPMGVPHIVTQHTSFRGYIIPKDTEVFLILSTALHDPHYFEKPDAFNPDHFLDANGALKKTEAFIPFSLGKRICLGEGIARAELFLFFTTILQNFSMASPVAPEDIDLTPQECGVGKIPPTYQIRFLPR

[18] = Acute toxicity in KM mouse at 1000 to 1500 mg/kg, po administered as single dose measured every 24 hrs for 14 days relative to control; format: organism-based; settings: in vivo, 336 h, dose 1000-1500 mg/kg, time 14 day
[19] = Cmax in Sprague-Dawley rat at 2.5 mg/kg, iv after 24 hrs by LC-MS/MS analysis; format: ADME, organism-based; set-up: route intravenous, time 24 hrs, dose 2.5 mg/kg; settings: in vivo
[20] = Acute toxicity in KM mouse at 1000 to 1500 mg/kg, po administered as single dose measured every 24 hrs for 14 days; format: organism-based; settings: in vivo, 336 h, dose 1000-1500 mg/kg, time 14 day

SMILES: COc1ccc2c3c([nH]c2c1)[C@@H]1N(CC3)C(=O)c2c(OC)cccc2N1C
- Cmax [1]: 54.4 ng/mL
- IC50 (Cytochrome P450 1A2): 10 µM
- IC50 (Cytochrome P450 3A4): 10 µM
- IC50 [2]: > 150 µM
- AUC(0-inf) [3]: 155 ng·h/mL
- AUC(0-t) at 24 h [4]: 146 ng·h/mL
- Activity (Rattus norvegicus [5]): Active
- Activity (Rattus norvegicus [6]): Active
- IC50 (Cytochrome P450 2C9): 10 µM
- IC50 (Cytochrome P450 2D6): 10 µM
- half-life [7]: 13.2 min
- inhibition [8]: inactive
- MRT last at 24 h [9]: 8.4 min
- IC50 [10]: 3 µM
- half-life [11]: 85.8 min
- IC50 [12]: > 30 µM
- AUC(0-t) at 24 h [13]: 519 ng·h/mL
- IC50 [14]: 20 µM
- Activity (Rattus norvegicus [15]): Active
- IC50 [16]: 2.48 µM
- AUC(0-inf) [17]: 520 ng·h/mL
- IC50 (Cytochrome P450 2B6): 10 µM
- Activity [18]: > 1.5 g/kg
- Cmax [19]: 1800 ng/mL
- Activity [20]: Non-Toxic
